Reference: US20030060463A1, “Preparation of topical regional compositions for the relief of pain” (priority 1995, published 2003)
Like-named read-outs stand apart in the source and are kept apart here.

Test system: pain due to nerve injury (SMP)
Type: in vivo, human
From the text: The purpose of this study was to evaluate and compare the safety and efficacy in the application of five topical compositions prepared with three active ingredients and applied singly or in combinations for the purpose of relief of sympathetically mediated pain (SMP).
The study size was a total of thirty four volunteer subjects; fifteen female and nineteen male volunteer subjects. Their ages ranged from 29 to 84 with a mean of 52 years of age. All subjects were diagnosed with severe sympathetically mediated pain.
Three different therapeutically active agents were utilized, alone or in combination, in preparations of lecithin matrix gels.
A different composition was applied each treatment day to the area of maximum pain. The patients were asked to indicate the level of their pain immediately prior to the application of the compositions, and then at intervals of 5, 10, 15 minutes, 1, 2 and 3 hours after receiving treatment. Pain intensity was measured using the scale below.
SIGNIFICANT PAIN RELIEF WAS DEFINED AS >50% PAIN RELIEF SUSTAINED GREATER THAN 2 HOURS. For example, if a given patient rated their pain immediately prior to application of the compositions as “very intense”, they would get a 1.8 score per the scale. […]

| SMILES | Safety and efficacy in clinical trials at other dosages (human, in vivo) | Safety and efficacy in clinical trials at other dosages (dosage between 0.05% to 2% of the topical composition) |
| --- | --- | --- |
| CN(C)CCC=C1c2ccccc2CCc2ccccc21 [amitriptylline] | safe and effective | – |
| CNC1(c2ccccc2Cl)CCCCC1=O (centres unmarked) [ketamine] | – | safe and effective |
